Laboratory results from patent US20260191856A1 (priority 2022, published 2026).
“And” between values parts separate entries of the source, which are not always exact repeats. Equal values may be shown once. “Also recorded” adds a separate entry of the source. Marks after values point to notes of the source that are not given here.

Experiments:
MOR [1] = biological target: T1, MOR (Homo sapiens, UniProt P35372); experiment: TRUPATH subtype selectivity, MOR/DAMGO; type: cell-based; conditions: compound A3 up to 30 μM
T1 construct: expressed in transfected cells; host or cells: HEK293T

MOR [2] = biological target: T1, MOR; type: cell-based
κOR = biological target: T2, κOR (Homo sapiens, UniProt P41145); experiment: TRUPATH subtype selectivity, κOR/U50488; type: cell-based; conditions: compound A3 up to 30 μM
T2 construct: expressed in transfected cells; host or cells: HEK293T (method is written for MOR)

male C57BL/6J mice [3] = experiment: Locomotor and respiration effects (CLAMS)
MOR [4] = biological target: T3, MOR (Mus musculus, UniProt P42866); experiment: biochemical; type: binding; set-up: made in house; host or cells: Sf9 insect cell membranes (baculovirus)
male C57BL/6J mice [5] = experiment: Naloxone-precipitated opioid withdrawal assay
δOR = biological target: T4, δOR (Homo sapiens, UniProt P41143); experiment: TRUPATH subtype selectivity, δOR/DPDPE; type: cell-based; conditions: compound A3 up to 30 μM
T4 construct: expressed in transfected cells; host or cells: HEK293T (method is written for MOR)

[6] = male, C57BL/6J, mouse, in vivo, iv, 10 mg/kg
male C57BL/6J mice [7] = experiment: Conditioned place preference (CPP) assay; type: in vivo, mouse; conditions: compound A3 100 mg/kg sc (−30 min) + naloxone 0.1 mg/kg s.c.
in vivo = conditions: male, C57BL/6J, mouse, iv, 10 mg/kg
MOR [8] = biological target: T3, MOR; type: biochemical; set-up: FLAG (N); hexa-histidine (C); made in house; host or cells: Spodoptera frugiperda (Sf9) for MOR; Trichoplusia ni for Gi
MOR [9] = biological target: T1, MOR; type: cell-based; remark: listed apart in the source
male C57BL/6J mice [10] = conditions: mouse, in vivo
CB1 [11] = biological target: T5, CB1 (Homo sapiens, UniProt P21554); experiment: 3H-SR141716A radioligand binding to CB1-containing membranes; set-up: made in house; host or cells: insect cell membranes (inferred from 'similar manner' to the Sf9 MOR membranes); conditions: compared with ZCZ
Protocol: CB1-containing membranes prepared in a similar manner to the μOR-containing membranes prepared above were diluted 1:2000 in 50 mM HEPES pH 7.4, 5 mM EDTA, 5 mM MgCl2, and 1% bovine serum albumin (BSA). 96-well plates precoated with blocking buffer (20 mM HEPES (pH 7.4), 100 mM NaCl, and 0.05% BSA) were used as reaction plates. For “competition” binding experiments, membranes were incubated with 6 nM ^3H-SR141716a (50.9 Ci/mmol; Perkin Elmer) and serially diluted allosteric modulators for 1 hour at room temperature with shaking. Following incubation, membranes were rapidly bound to double thick 90×120 mm glass fibre Printed Filtermat B filters (Perkin Elmer) presoaked in 0.33% (v/v) polyethylenimine and washed with cold binding buffer (20 mM HEPES pH 7.4, 100 mM NaCl) using a MicroBeta Filtermat-96 cell harvester (Perkin Elmer). ^3H-SR141716a bound membranes on Filtermats were measured with a MicroBeta counter (Perkin Elmer) after addition of MultiLex B/HS melt-on scintillator sheets (Perkin Elmer) and data values were plotted after normalizing total counts per minute to the highest and lowest values.

CB1 [12] = biological target: T5, CB1; experiment: GTP turnover assay with CB1 and Gi1; type: biochemical; set-up: Purification of human full-length CB1 with an N-terminal FLAG and C-terminal hexahistidine tags; FLAG (N); hexahistidine (C); made in house; host or cells: insect cells (baculovirus, Expression Systems) for CB1; Trichoplusia ni for Gi
[13] = compound A3 1-100 mg/kg + naloxone 0.1 mg/kg, maximal at 100 mg/kg
[14] = Condition 4 morphine + compound A3 (100 mg/kg) + low NAL (0.1 mg/kg)

T5 sequence (P21554 whole entry): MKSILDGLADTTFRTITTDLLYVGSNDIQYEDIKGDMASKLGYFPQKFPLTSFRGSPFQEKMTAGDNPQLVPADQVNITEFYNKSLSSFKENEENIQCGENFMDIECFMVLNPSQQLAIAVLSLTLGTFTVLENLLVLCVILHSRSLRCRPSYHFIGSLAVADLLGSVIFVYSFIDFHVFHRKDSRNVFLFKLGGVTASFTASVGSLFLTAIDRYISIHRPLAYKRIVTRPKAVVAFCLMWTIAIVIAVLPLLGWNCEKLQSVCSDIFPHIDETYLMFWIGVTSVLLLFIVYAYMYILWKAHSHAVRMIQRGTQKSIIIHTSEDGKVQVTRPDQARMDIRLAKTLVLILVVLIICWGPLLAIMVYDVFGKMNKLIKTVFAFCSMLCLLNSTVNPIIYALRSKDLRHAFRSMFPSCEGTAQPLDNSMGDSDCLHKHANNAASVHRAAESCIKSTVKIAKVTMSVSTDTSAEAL
T3 sequence (P42866 whole entry): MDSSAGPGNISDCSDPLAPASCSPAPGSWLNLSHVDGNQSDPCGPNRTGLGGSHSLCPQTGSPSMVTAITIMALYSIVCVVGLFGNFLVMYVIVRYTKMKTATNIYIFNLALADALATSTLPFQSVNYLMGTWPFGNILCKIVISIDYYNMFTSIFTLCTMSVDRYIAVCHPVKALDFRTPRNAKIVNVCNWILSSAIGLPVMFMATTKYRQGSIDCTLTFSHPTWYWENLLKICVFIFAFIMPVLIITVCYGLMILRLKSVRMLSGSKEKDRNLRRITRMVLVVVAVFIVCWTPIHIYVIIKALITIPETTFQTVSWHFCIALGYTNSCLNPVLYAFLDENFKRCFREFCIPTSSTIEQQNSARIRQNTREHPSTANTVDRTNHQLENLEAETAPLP
T1 sequence (P35372 whole entry): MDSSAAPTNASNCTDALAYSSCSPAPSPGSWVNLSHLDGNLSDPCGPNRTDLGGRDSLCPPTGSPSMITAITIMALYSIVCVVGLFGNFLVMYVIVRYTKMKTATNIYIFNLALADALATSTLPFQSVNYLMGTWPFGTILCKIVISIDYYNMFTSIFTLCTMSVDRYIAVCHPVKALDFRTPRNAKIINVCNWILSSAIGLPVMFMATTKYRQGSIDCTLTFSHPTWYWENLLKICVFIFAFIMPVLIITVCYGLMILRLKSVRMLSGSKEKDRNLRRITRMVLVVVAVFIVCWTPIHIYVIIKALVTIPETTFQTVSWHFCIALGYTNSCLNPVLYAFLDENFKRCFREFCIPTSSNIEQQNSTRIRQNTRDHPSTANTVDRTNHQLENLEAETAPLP
T4 sequence (P41143 whole entry): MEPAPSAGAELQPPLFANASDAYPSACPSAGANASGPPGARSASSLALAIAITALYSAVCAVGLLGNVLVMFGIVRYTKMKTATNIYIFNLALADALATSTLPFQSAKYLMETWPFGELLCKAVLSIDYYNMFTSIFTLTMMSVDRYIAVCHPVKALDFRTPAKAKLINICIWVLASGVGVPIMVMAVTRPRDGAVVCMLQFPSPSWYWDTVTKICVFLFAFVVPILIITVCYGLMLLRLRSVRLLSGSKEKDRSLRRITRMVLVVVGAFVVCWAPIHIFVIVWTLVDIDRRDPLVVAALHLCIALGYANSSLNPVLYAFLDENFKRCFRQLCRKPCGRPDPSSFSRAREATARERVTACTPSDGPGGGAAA
T2 sequence (P41145 whole entry): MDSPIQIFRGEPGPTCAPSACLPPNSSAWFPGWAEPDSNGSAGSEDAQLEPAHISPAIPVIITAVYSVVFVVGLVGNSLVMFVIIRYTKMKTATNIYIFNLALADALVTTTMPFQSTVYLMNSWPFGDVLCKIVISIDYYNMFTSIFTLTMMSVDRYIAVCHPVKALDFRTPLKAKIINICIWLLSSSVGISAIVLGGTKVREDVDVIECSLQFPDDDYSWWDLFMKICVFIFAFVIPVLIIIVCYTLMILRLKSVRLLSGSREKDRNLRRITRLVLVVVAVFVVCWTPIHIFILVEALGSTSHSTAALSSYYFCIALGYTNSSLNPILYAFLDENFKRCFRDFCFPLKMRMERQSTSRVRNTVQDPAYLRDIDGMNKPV

Structure (SMILES): CNC(=O)C(Cc1ccc(C)c(OC)c1)NC(=O)CSc1ccc2ccccc2c1-c1cncc(OCc2ccccc2)c1 (racemic) [Compound A3, 2-(2-((1-(5-(benzyloxy)pyridin-3-yl)naphthalen-2-yl)thio)acetamido)-3-(3-methoxy-4-methylphenyl)-N-methylpropanamide]
- right-shift in DAMGO potency at the MOR (MOR [1]): 3.7 fold
- inhibition across Gi/o subtypes (MOR [2]): all Ci/o subtypes were inhibited nearly equally
- effect at κOR activation by U50,488 (κOR): No effect is observed at KOR activation by U50,488
- enhancement of low-dose naloxone inhibition of morphine-induced hyperlocomotion (male C57BL/6J mice [3]; [13]): significantly enhances low-dose naloxone inhibition of hyperlocomotion
- enhancement of low-dose naloxone inhibition of morphine-induced respiratory depression (male C57BL/6J mice [3]; [13]): significantly enhances low-dose naloxone inhibition
- ambulation or breathing rate, compound itself (male C57BL/6J mice [3]; compound A3 alone, relative to vehicle): does not change ambulation or breathing rate relative to vehicle administration
- EC50 (MOR [4]; EC50 of increased binding of 3H-naloxone, MOR-expressing membranes): 130 nM and 133 nM
- increase in 3H-naloxone affinity (MOR [4]; in the presence of excess A3): ~ 2.6 fold and 2.6 fold
- enhancement of observed on-rate of 3H-naloxone (MOR [4]; orthosteric site saturated with mitragynine pseudoindoxyl): > 10 fold
- Forepaw Licking Frequency, Avg (male C57BL/6J mice [5]; [14]): 0.6
- Forepaw Tremor, Avg (male C57BL/6J mice [5]; [14]): 1.6
- Rearing Frequency, Avg (male C57BL/6J mice [5]; [14]): 1.6*
- Straightening, Avg (male C57BL/6J mice [5]; [14]): 0.2
- Wet Dog shakes, Avg (male C57BL/6J mice [5]; [14]): 1.1
- magnitude of naloxone-precipitated withdrawal, combined low-dose naloxone/NAM treatment (male C57BL/6J mice [5]; compound A3 100 mg/kg s.c. + naloxone 0.1 mg/kg s.c., morphine-dependent mice): did not potentiate the magnitude of withdrawal caused by a low-dose of naloxone alone to the same levels of withdrawal symptoms as the conventional naloxone treatment
- right-shift in DPDPE potency at δOR (δOR): caused a right-shift in DPDPE potency at SOR, though to a lesser extent
- brain penetration [6]: ~ 25 % of maximum plasma levels
- morphine CPP after compound A3 and low-dose naloxone (male C57BL/6J mice [7]): morphine CPP was eliminated
- half-life (in vivo): 44.4 min
- GTP turnover in the absence of orthosteric ligand (MOR [8]): inhibits turnover of the receptor in the absence of orthosteric ligand; also recorded: inhibited receptor-catalyzed GTP turnover in the absence of orthosteric ligands
- effect on met-enkephalin induced activation of G protein (GTP turnover) (MOR [8]): significantly inhibits met-enkephalin induced activation of Gi; also recorded: inhibited MOR/met-enkephalin induced activation of Gl
- efficacy of modulation of met-enkephalin-induced GTP turnover (MOR [8]): inhibiting GTP depletion to nearly the same levels as those observed for G in the absence of any receptor catalyst; also recorded: nearly eliminating receptor induced GTP turnover
- potency in GTP turnover assay (MOR [8]): single-digit μM range
- potency of A3 at inhibiting relative to A1 at enhancing MOR/met-enkephalin induced activation of G (MOR [8]): > 10 fold
- enhancement of observed potency of naloxone for inhibiting agonist-induced signaling (MOR [9]): 7.6
- impact on morphine-induced antinociception, compound alone (male C57BL/6J mice [10]): no significant impact on morphine-induced antinociception
- inhibition of morphine-induced antinociception in the presence of low-dose naloxone (male C57BL/6J mice [10]): significantly inhibits morphine-induced antinociception in a dose-dependent manner
- median dose to potentiate low-dose naloxone antagonism of morphine antinociception (male C57BL/6J mice [10]): 1.15 (0.03-4.04) mg/kg, s.c.

Structure (SMILES): CNC(=O)c1nc2ccc(N3CC(N)C3)nn2c1-c1ccc(OCc2ccccc2)c(F)c1 [Compound A4]
- effect on 3H-SR141716A antagonist binding (CB1 [11]): binds CB1 and decreases antagonist affinity though with lower potency than the known PAM, ZCZ
- effect on Gi1 GTP turnover, AEA-bound CB1 (CB1 [12]; AEA): not AEA-bound CB1
- effect on Gi1 GTP turnover, FUB-bound CB1 (CB1 [12]; FUB (MDMB-Fubinaca)): enhance FUB-induced Gi turnover; also recorded: specifically able to increase turnover for FUB-bound CB1
